In the data set the target is T1, Novosphingobium aromaticivorans ATCC 700278 P450scc CYP204A1, wild type, SEQ ID NO: 23 (Novosphingobium aromaticivorans, UniProt A4XF07).
T1 sequence (A4XF07 1-473): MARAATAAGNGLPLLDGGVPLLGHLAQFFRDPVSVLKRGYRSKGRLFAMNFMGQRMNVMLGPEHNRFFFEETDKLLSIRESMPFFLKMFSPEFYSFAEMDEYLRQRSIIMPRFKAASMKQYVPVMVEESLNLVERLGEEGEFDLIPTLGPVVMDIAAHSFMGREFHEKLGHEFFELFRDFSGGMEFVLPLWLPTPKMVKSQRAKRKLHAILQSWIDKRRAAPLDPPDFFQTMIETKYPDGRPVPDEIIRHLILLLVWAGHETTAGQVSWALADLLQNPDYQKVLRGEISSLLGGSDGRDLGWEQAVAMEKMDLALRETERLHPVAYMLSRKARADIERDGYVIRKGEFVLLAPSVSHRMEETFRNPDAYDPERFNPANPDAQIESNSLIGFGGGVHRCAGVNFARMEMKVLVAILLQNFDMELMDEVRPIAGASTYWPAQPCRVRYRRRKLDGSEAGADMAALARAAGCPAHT
The data set is described as follows: Kinetics analysis of CYP204A1 with 4-cholesten-3-one (conversion to progesterone, cell-free extract).

This is an account of results in US20120178124A1, “STEROL SIDE CHAIN-CLEAVING ENZYME PROTEIN AND USE THEREOF” (MITSUBISHI CHEMICAL CORPORATION, priority 2009, published 2012).

As for `CC(C)CCC[C@@H](C)[C@H]1CC[C@H]2[C@@H]3CCC4=CC(=O)CC[C@]4(C)[C@H]3CC[C@]12C` [4-cholesten-3-one], the Vmax (4-cholesten-3-one 0.1 to 500 μM, pH 7.5, 15° C., 60 minutes, Lineweaver-Burk plot) is listed as 47.4 mmol/min/mol. The “Vmax, relative activity” value (relative to CYP204A1 (1.00)) came out at 1.00. In addition, the “decrease rate of the enzyme protein activity (substrate inhibition)” value (substrate concentration increased from 10 μM to 100 μM, pH 7.5, 15° C.) came out at 33%.
